The text below walks through data of patent publication US7700584B2 (Hangzhou Minsheng Pharmaceuticals Co., Ltd., priority 2004, dated 2010).

One series deals with Hepatitis B virus (HBV). The class given is cell-based. To be noted: 200 μg/ml; for (Value of the positive control - Measured Value) Value of the positive control × 100%: decrease of HBeAg relative to positive control; for OD450 of HBeAg: supernatant four days after infection, positive control 1.917, negative 0.057.
For a further series, the system named is HepG2 cells. In words: Cell status of HepG2 cells treated with sample (HBV screening). The class given is cell-based. Conditions: 200 μg/ml, HepG2, four days after infection.
For series [1], the system named is eight selected tumor cell lines. In words: In vitro anti-tumor IC50, summary over the selected tumor cell lines. Conditions: Hela and U-937, also U-937 and HL-60 cell lines. The class given is cell-based. As for the experimental part: (1) Single cell suspension was seeded into 96-well plates (the cells was diluted in the PRMI-1640 minimum medium to 3×10^4 cells/ml, […] diluted cells/well). […] The experiments were performed in quadruplicate.
(2) The medium was removed. Solutions of the anti-tumor agents (50 compounds) were prepared in a freshly prepared medium at serial concentrations. […] of the solution was added into each well. Incubation was continued for 48 hours.
(3) 20 ug of 2 mg/ml MTT was added into each well, and incubated for 4 hours.
(4) The medium was removed from the well. The microplates were swiftly turned down to throw-off the medium. […] of DMSO was added into each well, and vortexed at room temperature for 10 minutes.
(5) OD value (λ=570 nm) was measured with an Enzyme-Linked Detector.
(6) The graph of cell vitality was plotted, and IC50 was calculated.

Series [2] concerns mouse grafted sarcoma S-180. Nature of the series: Activity against mouse grafted sarcoma S-180. The class given is in vivo, Kunming mice. Conditions: for Average weight (g)-after administration / Tumor weight / Inhibition rate (%) / Average weight(g)-after administration: 6 doses; for Tumor weight: X ± SD, n = 10. The protocol: (1) Experimental animals: Kunming mice weighting 18-22 g;
(2) 100 mg/ml solutions of the 3 compounds were prepared, respectively, in water for injection (1% surface surfactant was added into the solution of Compound 6). 5-FU and camptothecine, 30 mg/kg and 1 mg/kg, respectively, were used as positive controls;
3. Route of Administration: Intravenous Injection.
(§1) The experiments were performed according to “Guideline for New Drugs (Western medicines) in Pre-clinical Stages” issued by Bureau of Drug Policy & Administration of the People's Republic of China, and the relevant methods in “Methodology of Pharmaceutical Experiments”, Xu Shuyun et al. ed. 120 male Kunming mice weighting […] were allowed to grow 3 days. No abnormality was observed. The mice were routinely inoculated in oxter with mouse sarcoma S-180, and weighted 4 hrs. after inoculation. The mice were randomly divided into 12 groups, 10 mice/group. Group 1 was given 0.3 ml of physiological saline as negative control; Group 2 was given 5-FU as positive control, 0.6 mg/mouse; Group 3 was given hydroxycamptothecine as positive control, 0.02 mg/mouse. Groups 4, 5 and 6 were injected with 10% Compound 6, 0.4 ml/mouse, 0.2 ml/mouse, and 0.1 ml/mouse, respectively. Groups 7, 8 and 9 were injected with 10% Compound 8, 0.4 ml/mouse, 0.2 ml/mouse, and 0.1 ml/mouse, respectively. Groups 10, 11, and 12 were injected with 10% Compound 20, 0.4 ml/mouse, 0.2 ml/mouse, and 0.1 ml/mouse, respectively. The tested compounds were administered on the next day after inoculation, once a day on alternate days, 6 doses totally administered. On the next day after the end dose, the mice were weighed and sacrificed. After the tumor was excised, body weight and tumor weight were recorded. The tumor inhibition rate was calculated based on the following formula: [(average tumor weight of the control groups−average tumor weight of the experimental groups)/average tumor weight of the control groups]×100%. The data was processed statistically. The above experiments were repeated three times.

The subject of series [3] is mouse grafted uterine cervix cancer U14. In words: Activity against mouse grafted uterine cervix cancer U14. The class given is in vivo, Kunming mice. To be noted: for Tumor weight: X ± SD, n = 10. As for the experimental part:
as §1
The experiments were identical with the experiments for activity against mouse grafted sarcoma S-180, except the following:
(1) the tumor cell line inoculated was mouse grafted uterine cervix cancer U14;
(2) all the mice were female.

Where [4] appears, read: S-180, first experiment, 10 mg/kg i.v.
The mark [5] stands for this setting: S-180, first experiment, 20 mg/kg i.v.
Where [6] appears, read: S-180, first experiment, 40 mg/kg i.v.
Where [7] appears, read: S-180, second experiment, 10 mg/kg i.v.
Setting [8] is: S-180, second experiment, 20 mg/kg i.v.
Setting [9] is: S-180, second experiment, 40 mg/kg i.v.
Setting [10] is: U14, first experiment, 10 mg/kg.
Where [11] appears, read: U14, first experiment, 20 mg/kg.
[12] abbreviates: U14, first experiment, 40 mg/kg.
The mark [13] stands for this setting: U14, second experiment, 10 mg/kg.
[14] abbreviates: U14, second experiment, 20 mg/kg.
The mark [15] stands for this setting: U14, second experiment, 40 mg/kg.
Where [16] appears, read: U14, third experiment, 10 mg/kg.
Where [17] appears, read: U14, third experiment, 20 mg/kg.
Setting [18] is: U14, third experiment, 40 mg/kg.

Protocol for HepG2 cells: 1.5 Screening for the agents: The HepG2 cells were counted and 1.5×10^4 cells/well were seeded into a 96-well plate. After incubation overnight in an atmosphere of CO2 at 37° C., each of the experimental samples in a given concentration was added to the cells. After incubation at 37 °C for 24 hrs, the HepG2 treated with the samples were infected with vAcGFPHBVc of 100 MOI. A negative control and a positive control were also included. Four days after infection, the growth of the cells were observed, and the HBV e antigen in the supernatant was measured with the HBV e antigen diagnostic kit.

For the compound `C=C1CC2(OC(=O)C(C)C)OC3(CC2C(C)C)C(C)CCC13` (stereo not shown) [Compound 3, Curcumol isobutyrate], in the series on Hepatitis B virus (HBV), the “(Value of the positive control - Measured Value) Value of the positive control × 100%” value is reported as −36.1502% and the “OD450 of HBeAg” value worked out at 2.61. In addition, in the series on HepG2 cells, the Cell status entry is on record as “Normal”.
Consider `CC(C)C1CC23OC1(O)CC(=CN1CCNCC1)C2CCC3C` (stereo not shown) [Compound 7, Curcumol piperazine], for which, in series [1], the “activity to Hela, U-937 and HL-60 cell lines (in words)” value is listed as “excellent activity”.
For the compound `CC(C)C1CC23OC1(O)CC(=CBr)C2CCC3C` (stereo not shown) [Compound 17, Curcumol monobromide], in the series on Hepatitis B virus (HBV), the “(Value of the positive control - Measured Value) Value of the positive control × 100%” value is 96.19% and the “OD450 of HBeAg” value is given as 0.073. In the series with HepG2 cells, the Cell status result is on record as “Poor”.
The matching figures for `C=C1CC2(OS(=O)(=O)O)OC3(CC2C(C)C)C(C)CCC13` (stereo not shown) [Compound 20, Curcumol sulfonate]: −14.8148%, 2.201 and “Normal”.
In the case of `C=C1CC2(OS(=O)(=O)[O-])OC3(CC2C(C)C)C(C)CCC13.[Na+]` (stereo not shown) [Compound 21, Curcumol sodium sulfonate], the “Average weight (g)-after administration” value amounted to 22.6 g in series [2] (setting [4]); 22.5 g in series [2] (setting [5]); 23.1 g in series [2] (setting [6]); 22.0 g in series [3] (setting [16]); 21.0 g in series [3] (setting [17]); 20.1 g in series [3] (setting [18]). The “Tumor weight” value in series [2] (setting [4]) is 2.6 ± 0.23 g; in series [2] (setting [5]), 2.4 ± 0.43 g; in series [2] (setting [6]), 2.3 ± 0.31 g; in series [2] (setting [7]), 2.5 ± 0.42 g; in series [2] (setting [8]), 2.5 ± 0.38 g; in series [2] (setting [9]), 2.4 ± 0.36 g. Besides, the “Tumor weight” value in series [3] (setting [10]) came to 1.68 ± 0.29 g; in series [3] (setting [11]), 1.52 ± 0.41 g; in series [3] (setting [12]) it was 0.99 ± 0.31 g; in series [3] (setting [13]), 1.59 ± 0.29 g; in series [3] (setting [14]), 1.46 ± 0.41 g; in series [3] (setting [15]), 0.89 ± 0.31 g. Further, the entries for the “Tumor weight” value in series [3] (setting [16]), in series [3] (setting [17]) and in series [3] (setting [18]) were 1.64 ± 0.29 g, 1.51 ± 0.41 g and 0.95 ± 0.31 g, respectively. Moreover, the “Inhibition rate (%)” value is 4% in series [2] (setting [5]); 8% in series [2] (setting [6]); 3.8% in series [2] (setting [7]); 3.8% in series [2] (setting [8]); 7.6% in series [2] (setting [9]); 52.1% in series [3] (setting [10]). The “Inhibition rate (%)” value in series [3] (setting [11]) turned out to be 56.7%; in series [3] (setting [12]), 71.8%; in series [3] (setting [13]) it was 53.2%; in series [3] (setting [14]), 57.1%; in series [3] (setting [15]), 73.8%; in series [3] (setting [16]), 54.7%. The “Inhibition rate (%)” value in series [3] (setting [17]) was 58.3%; in series [3] (setting [18]), 73.7%. In addition, the “Average weight(g)-after administration” value amounted to 22.6 g in series [2] (setting [7]); 22.2 g in series [2] (setting [8]); 23.1 g in series [2] (setting [9]); 22.1 g in series [3] (setting [10]); 21.0 g in series [3] (setting [11]); 21.1 g in series [3] (setting [12]). In addition, the “Average weight(g)-after administration” value in series [3] (setting [13]) came to 22.5 g; in series [3] (setting [14]), 21.1 g; in series [3] (setting [15]), 21.0 g. The “inhibitory effect against mouse sarcoma S-180 (in words)” value in series [2] (three different concentrations (40, 20, 10 mg/kg), i.v.) was “little inhibitory effect”. Moreover, the “inhibitory effect against mouse grafted uterine cervix cancer U14 (in words)” value in series [3] (all the three concentrations, i.v., female mice) was “good inhibitory effect”. Also, in the series with Hepatitis B virus (HBV), the “(Value of the positive control - Measured Value) Value of the positive control × 100%” value turned out to be 92.85%. Further, the “OD450 of HBeAg” value with Hepatitis B virus (HBV) worked out at 0.137.
